# From the SangsterLogP compilation
# Assay: method code SF-AS, from PMID: 8047542
row,SMILES,logP
1,CCCCOC(=O)C(C)c1ccc(CC(C)C)cc1 (configuration not stated),3.13
2,CCCCCCCOC(=O)C(C)c1ccc(CC(C)C)cc1 (configuration not stated),3.75
3,CC(C)COC(=O)C(C)c1ccc(CC(C)C)cc1 (configuration not stated),2.68
4,CCCOC(=O)C(C)c1ccc(CC(C)C)cc1 (configuration not stated),2.88
5,CCC(C)OC(=O)C(C)c1ccc(CC(C)C)cc1 (configuration not stated),3.06
6,COC(=O)C(C)c1ccc(CC(C)C)cc1 (configuration not stated),2.97
7,CCOC(=O)C(C)c1ccc(CC(C)C)cc1 (configuration not stated),3.02
8,CC(C)Cc1ccc(C(C)C(=O)OC(C)C)cc1 (configuration not stated),2.3
9,CC(C)Cc1ccc(C(C)C(=O)OC(C)(C)C)cc1 (configuration not stated),2.37
10,CCCCCCCCCCCCCCCCOC(=O)C(C)c1ccc(CC(C)C)cc1 (configuration not stated),3.71
11,CCCCCCOC(=O)C(C)c1ccc(CC(C)C)cc1 (configuration not stated),3.55
12,CCCCCOC(=O)C(C)c1ccc(CC(C)C)cc1 (configuration not stated),3.3
